This is an account of results in patent publication US20120077858A1, “COMPOUNDS ACT AT MULTIPLE PROSTAGLANDIN RECEPTORS GIVING A GENERAL ANTI-INFLAMMATORY RESPONSE” (ALLERGAN, INC., priority 2010, published 2012).

What all share (type): cell-based
Assay [1] deals with T1, human prostanoid FP receptor (Homo sapiens, UniProt P43088).
T1 construct: expressed in transfected cells
As to the kind of experiment: FLIPR Ca2+ signaling antagonist assay, FP receptor stable cell line. The conditions noted are these: HEK-293 EBNA stable cells, vs standard agonist 17-phenyl-PGF2α. As to the method:
(§1) The above compounds were tested for PG antagonist activity as follows using human recombinant prostanoid receptor (DP1, EP1-4, FP, IP and TP) stable cell lines:
(§2) In order to measure the response of Gs and Gi coupled prostanoid receptors as a Ca^2+ signal, chimeric G protein cDNAs were used. Stable cell lines over-expressing human prostanoid DP1, EP1-4, FP, IP, and TP receptors were established as follows:
(§3) Briefly, human prostanoid DP1, EP2, and EP4 receptor cDNAs were co-transfected with chimeric Gqs cDNA containing a haemagglutanin (HA) epitope; human prostanoid EP3 receptors were co-transfected with chimeric Gqi-HA; human EP1, FP, IP, and TP receptor cDNAs were expressed with no exogenous G-proteins. Gqs and Gqi chimeric cDNAs (Molecular Devices, Sunnyvale, Calif., U.S.A.), as well as cDNAs of prostanoid receptors, were cloned into a pCEP4 vector with a hygromycin B selection marker. Transfection into HEK-293 EBNA (Epstein-Barr virus nuclear antigen) cells was achieved by the FuGENE 6 transfection Reagent (Roche Applied Science, Indianapolis, Ind., USA). Stable transfectants were selected according to hygromycin resistance. Because Gqs and Gqi contained an HA epitope, G-protein expression was detected by Western blotting analysis using anti-mouse HA monoclonal antibody and horseradish peroxidase (HRP)-conjugated secondary antibody, while functional expression of prostanoid receptors was detected by FLIPR screening. These stable cell lines were validated using previously published antagonists at 10 μM against serial dilutions of standard agonists by FLIPR functional assays for Ca^2+ Signaling (as described below).
(§4) Ca^2+ signaling studies were performed using a FLIPR TETRA system (Molecular Devices, Sunnyvale, Calif., USA) in the 384-format. This is a high-throughput instrument for cell-based assays to monitor Ca^2+ signaling associated with GPCRs and ion channels. Cells were seeded at a density of 5×10^4 cells/well in BioCoat poly-D-lysine coated, black wall, clear bottom 384-well plates (BD Biosciences, Franklin lakes, NJ, USA) and allowed to attach overnight in an incubator at 37° C. […]
(§5) After 4.5 minutes, a 7-point serial dilution of the standard agonist for the corresponding receptor, in a 25 μl volume was injected at the final concentrations from 10^−11M to 10^−5M 10-fold serial dilution increments for cells expressing human recombinant DP1, EP1, EP2, EP3, EP4, FP, and IP receptors. […] Cells were excited with LED (light emitting diode) excitation at 470-495 nm and emission was measured through an emission filter at 515-575 nm. Assay plates were read for 3.5 minutes using the FLIPR^TETRA. The peak increase in fluorescence intensity was recorded for each well. […]

Assay [2] concerns the target T2, human prostanoid EP3 receptor (Homo sapiens, UniProt P43115).
T2 construct: expressed in transfected cells
T2 sequence (P43115 1-390): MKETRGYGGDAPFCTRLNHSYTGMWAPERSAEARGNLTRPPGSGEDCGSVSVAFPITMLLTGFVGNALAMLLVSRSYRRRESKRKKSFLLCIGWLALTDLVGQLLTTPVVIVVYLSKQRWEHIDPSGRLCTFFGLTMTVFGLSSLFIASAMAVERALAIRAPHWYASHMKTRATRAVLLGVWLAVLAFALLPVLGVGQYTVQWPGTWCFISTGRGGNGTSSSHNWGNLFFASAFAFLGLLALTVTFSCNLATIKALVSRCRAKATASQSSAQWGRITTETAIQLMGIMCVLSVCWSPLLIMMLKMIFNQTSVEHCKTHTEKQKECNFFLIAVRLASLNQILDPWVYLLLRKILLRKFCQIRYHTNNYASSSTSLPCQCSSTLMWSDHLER
In words: FLIPR Ca2+ signaling antagonist assay, EP3 receptor stable cell line. The conditions noted are these: chimeric Gqi, vs standard agonist PGE2. The protocol:
as §1, §2, §3, §4, §5

Assay [3] concerns the target T3, human prostanoid EP4 receptor (Homo sapiens, UniProt P35408).
T3 construct: expressed in transfected cells
As to the kind of experiment: FLIPR Ca2+ signaling antagonist assay, EP4 receptor stable cell line. Particulars: chimeric Gqs, vs standard agonist PGE2. The protocol: as §1, §2, §3, §4, §5

Assay [4] concerns the target T4, human prostanoid IP receptor (Homo sapiens, UniProt P43119).
T4 construct: expressed in transfected cells
As to the kind of experiment: FLIPR Ca2+ signaling antagonist assay, IP receptor stable cell line. Particulars: HEK-293 EBNA stable cells, vs standard agonist Cicaprost. The protocol: as §1, §2, §3, §4, §5

For assay [5], the target named is T5, human prostanoid TP receptor (Homo sapiens, UniProt P21731).
T5 construct: expressed in transfected cells
T5 sequence (P21731 1-343): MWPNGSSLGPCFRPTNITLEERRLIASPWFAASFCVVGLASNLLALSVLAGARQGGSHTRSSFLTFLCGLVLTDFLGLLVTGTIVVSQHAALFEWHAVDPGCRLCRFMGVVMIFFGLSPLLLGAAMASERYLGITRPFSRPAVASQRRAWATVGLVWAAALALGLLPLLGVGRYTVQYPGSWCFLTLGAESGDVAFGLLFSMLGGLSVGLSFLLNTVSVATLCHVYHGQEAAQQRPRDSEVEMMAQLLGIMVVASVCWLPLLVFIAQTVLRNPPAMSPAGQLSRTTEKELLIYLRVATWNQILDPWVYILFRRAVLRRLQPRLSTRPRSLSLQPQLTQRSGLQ
In words: FLIPR Ca2+ signaling antagonist assay, TP receptor stable cell line. The protocol: as §1, §2
as §3, with “These stable cell lines were validated using previously published antagonists at 10 μM against serial dilutions of standard agonists by FLIPR functional assays for Ca^2+ Signaling (as described below).” left out
as §5

Assay [6] addresses T6, human prostanoid DP1 receptor (Homo sapiens, UniProt Q13258).
T6 construct: expressed in transfected cells
T6 sequence (Q13258 1-359): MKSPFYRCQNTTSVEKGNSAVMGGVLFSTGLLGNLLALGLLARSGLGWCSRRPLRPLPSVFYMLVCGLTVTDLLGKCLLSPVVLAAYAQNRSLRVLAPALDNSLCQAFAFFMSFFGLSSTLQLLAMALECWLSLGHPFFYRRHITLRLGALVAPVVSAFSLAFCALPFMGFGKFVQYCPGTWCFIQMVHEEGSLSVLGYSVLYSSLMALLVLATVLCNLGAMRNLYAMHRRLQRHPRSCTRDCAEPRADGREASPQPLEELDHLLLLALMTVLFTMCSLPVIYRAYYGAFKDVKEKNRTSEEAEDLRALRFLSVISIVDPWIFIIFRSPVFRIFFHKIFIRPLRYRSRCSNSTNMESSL
As to the kind of experiment: FLIPR Ca2+ signaling antagonist assay, DP1 receptor stable cell line. As to the method:
as §1, §2
Briefly, human prostanoid DP1, EP2, and EP4 receptor cDNAs were co-transfected with chimeric Gqs cDNA containing a haemagglutanin (HA) epitope; human prostanoid EP3 receptors were co-transfected with chimeric Gqi-HA; human EP1, FP, IP, and TP receptor cDNAs were expressed with no exogenous G-proteins. […] Because Gqs and Gqi contained an HA epitope, G-protein expression was detected by Western blotting analysis using anti-mouse HA monoclonal antibody and horseradish peroxidase (HRP)-conjugated secondary antibody, while functional expression of prostanoid receptors was detected by FLIPR screening. […]
After 4.5 minutes, a 7-point serial dilution of the standard agonist for the corresponding receptor, in a 25 μl volume was injected at the final concentrations from 10^−11M to 10^−5M 10-fold serial dilution increments for cells expressing human recombinant DP1, EP1, EP2, EP3, EP4, FP, and IP receptors. […] Assay plates were read for 3.5 minutes using the FLIPR^TETRA. […]

Assay [7] deals with T7, human prostanoid EP2 receptor (Homo sapiens, UniProt P43116).
T7 construct: expressed in transfected cells
T7 sequence (P43116 whole entry): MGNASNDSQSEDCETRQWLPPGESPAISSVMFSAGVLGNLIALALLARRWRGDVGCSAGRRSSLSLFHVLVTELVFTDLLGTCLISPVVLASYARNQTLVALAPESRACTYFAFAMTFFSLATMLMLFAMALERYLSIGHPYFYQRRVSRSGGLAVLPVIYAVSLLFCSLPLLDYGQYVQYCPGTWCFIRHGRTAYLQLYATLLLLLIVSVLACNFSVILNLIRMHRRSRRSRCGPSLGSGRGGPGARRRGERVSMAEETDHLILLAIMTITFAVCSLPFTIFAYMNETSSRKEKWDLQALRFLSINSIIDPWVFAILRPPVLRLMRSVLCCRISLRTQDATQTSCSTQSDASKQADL
As to the kind of experiment: FLIPR Ca2+ signaling antagonist assay, EP2 receptor stable cell line. The conditions noted are these: chimeric Gqs, vs standard agonist PGE2. As to the method:
as §1, §2, §3, §4, §5

Assay [8] deals with T8, human prostanoid EP1 receptor (Homo sapiens, UniProt P34995).
T8 construct: expressed in transfected cells
T8 sequence (P34995 1-402): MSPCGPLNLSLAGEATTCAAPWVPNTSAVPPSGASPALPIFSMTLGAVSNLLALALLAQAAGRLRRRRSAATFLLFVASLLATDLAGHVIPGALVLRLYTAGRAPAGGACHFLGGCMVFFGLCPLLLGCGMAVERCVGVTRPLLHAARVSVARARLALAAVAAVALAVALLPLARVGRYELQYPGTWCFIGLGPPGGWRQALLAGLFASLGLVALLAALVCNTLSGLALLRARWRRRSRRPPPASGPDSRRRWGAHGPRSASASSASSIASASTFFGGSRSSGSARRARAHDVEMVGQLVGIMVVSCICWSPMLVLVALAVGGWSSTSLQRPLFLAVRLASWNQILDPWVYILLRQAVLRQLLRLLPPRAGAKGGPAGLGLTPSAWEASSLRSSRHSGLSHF
In words: FLIPR Ca2+ signaling antagonist assay, EP1 receptor stable cell line. The conditions noted are these: vs standard agonist PGE2. The protocol:
as §1, §2, §3, §4, §5

Where [9] appears, read: read-out: EC50 (nM) on Prostanoid Receptor Functional Activity Measured by FLIPR.
Where [10] appears, read: HEK-293 EBNA stable cells, read-out: EC50 (nM) on Prostanoid Receptor Functional Activity Measured by FLIPR, (FLIPR) Kb (nM): EP3.
The mark [11] stands for this setting: HEK-293 EBNA stable cells, read-out: EC50 (nM) on Prostanoid Receptor Functional Activity Measured by FLIPR, (FLIPR) Kb (nM): EP4.
[12] abbreviates: HEK-293 EBNA stable cells, vs standard agonist U-46619, read-out: EC50 (nM) on Prostanoid Receptor Functional Activity Measured by FLIPR, (FLIPR) Kb (nM): TP.
[13] abbreviates: HEK-293 EBNA stable cells, read-out: EC50 (nM) on Prostanoid Receptor Functional Activity Measured by FLIPR, (FLIPR) Kb (nM): EP2.
[14] abbreviates: HEK-293 EBNA stable cells, read-out: EC50 (nM) on Prostanoid Receptor Functional Activity Measured by FLIPR, (FLIPR) Kb (nM): EP1.
The mark [15] stands for this setting: EC50 (nM) on Prostanoid Receptor Functional Activity Measured by FLIPR.

Values joined by “and” are separate entries in the source; they are usually repeats but may differ in a detail not shown here. Equal values may be shown once. Read-outs that look alike come from different tables or passages of the source.

T3 sequence (P35408 whole entry): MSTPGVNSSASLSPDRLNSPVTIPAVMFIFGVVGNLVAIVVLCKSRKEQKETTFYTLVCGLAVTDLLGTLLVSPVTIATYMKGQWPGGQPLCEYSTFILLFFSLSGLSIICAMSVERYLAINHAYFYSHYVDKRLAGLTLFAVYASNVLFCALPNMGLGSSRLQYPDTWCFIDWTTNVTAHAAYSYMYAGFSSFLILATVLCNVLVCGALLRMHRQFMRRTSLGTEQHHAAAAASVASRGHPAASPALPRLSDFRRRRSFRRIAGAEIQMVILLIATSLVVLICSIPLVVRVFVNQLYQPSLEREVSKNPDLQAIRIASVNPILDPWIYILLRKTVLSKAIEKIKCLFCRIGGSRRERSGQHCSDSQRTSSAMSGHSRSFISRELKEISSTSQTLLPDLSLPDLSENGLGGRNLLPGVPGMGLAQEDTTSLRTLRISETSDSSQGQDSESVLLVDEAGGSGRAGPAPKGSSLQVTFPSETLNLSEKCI
T1 sequence (P43088 whole entry): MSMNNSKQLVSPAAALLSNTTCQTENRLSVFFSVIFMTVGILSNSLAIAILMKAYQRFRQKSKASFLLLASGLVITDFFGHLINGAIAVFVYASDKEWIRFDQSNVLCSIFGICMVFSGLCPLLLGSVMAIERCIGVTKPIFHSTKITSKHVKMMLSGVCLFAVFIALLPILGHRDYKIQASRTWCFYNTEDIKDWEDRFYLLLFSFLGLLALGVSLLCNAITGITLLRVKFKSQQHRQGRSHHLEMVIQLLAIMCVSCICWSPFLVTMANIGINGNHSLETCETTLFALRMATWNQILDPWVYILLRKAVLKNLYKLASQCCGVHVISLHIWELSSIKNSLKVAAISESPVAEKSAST
T4 sequence (P43119 whole entry): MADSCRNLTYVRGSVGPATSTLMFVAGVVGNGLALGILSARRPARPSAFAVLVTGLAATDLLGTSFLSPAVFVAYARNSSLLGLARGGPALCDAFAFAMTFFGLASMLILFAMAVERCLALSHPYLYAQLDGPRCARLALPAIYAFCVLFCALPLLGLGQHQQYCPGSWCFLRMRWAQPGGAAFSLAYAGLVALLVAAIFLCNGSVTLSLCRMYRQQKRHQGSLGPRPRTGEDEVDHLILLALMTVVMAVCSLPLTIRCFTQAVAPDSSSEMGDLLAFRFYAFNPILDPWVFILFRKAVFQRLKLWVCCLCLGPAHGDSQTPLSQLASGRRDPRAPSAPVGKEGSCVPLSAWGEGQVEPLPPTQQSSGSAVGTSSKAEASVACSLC

For `O=C(CCc1cc2c(cc1CN1CCCC1c1nc(C(=O)NCCCCC3CCCCC3)co1)OCO2)NS(=O)(=O)C(F)(F)F` (centres unmarked) [Example 12d], the Kb in assay [1] (setting [9]) was found to be 360 nM; in assay [2] (setting [10]), 150 nM; in assay [3] (setting [11]) it was 7 nM; in assay [4] (setting [9]) it was 1000 nM; in assay [5] (setting [12]), 0.3 nM; in assay [6] (HEK-293 EBNA stable cells, chimeric Gqs, vs standard agonist BW 245C, read-out: EC50 (nM) on Prostanoid Receptor Functional Activity Measured by FLIPR, (FLIPR) Kb (nM): DP), 3 nM. In addition, the Kb in assay [7] (setting [13]) was determined as 3900 nM; in assay [8] (setting [14]) it was 63 nM.

`O=C(CCc1ccc(F)cc1CN1CCC[C@H]1c1nc(C(=O)NCCCCC2CCCCC2)co1)NS(=O)(=O)C(F)(F)F` [Example 12a]: the Kb in assay [1] (setting [9]) was 350 nM and 270 nM; in assay [2] (setting [10]), 82 nM and 47 nM; in assay [3] (setting [11]), 38 nM and 10 nM; in assay [4] (setting [9]) it was 550 nM and 860 nM; in assay [5] (setting [12]), less than 1 nM; in assay [7] (setting [13]), 6400 nM and 830 nM. In assay [8] (setting [14]), the Kb is 47 nM and 20 nM.

On to `O=C(CCc1ccc(Cl)cc1CN1CCC[C@H]1c1nc(C(=O)NCCCCC2CCCCC2)co1)NS(=O)(=O)C(F)(F)F` [Example 12b, (S)—N-(4-cyclohexylbutyl)-2-(1-(5-chloro-2-(3-oxo-3-(trifluoromethylsulfonamido)propyl)benzyl)pyrrolidin-2-yl)oxazole-4-carboxamide], for which the Kb came out at 460 nM in assay [1] (setting [9]); 100 nM in assay [2] (setting [10]); 37 nM in assay [3] (setting [11]); 9500 nM in assay [4] (setting [9]); 5500 nM in assay [7] (setting [13]); 70 nM in assay [8] (setting [14]).

Consider `CCCCCCCCNC(=O)c1coc(C2CCCN2Cc2cc(F)ccc2CCC(=O)NS(=O)(=O)C(F)(F)F)n1` (centres unmarked) [Example 12e, 2-{1-[5-fluoro-2-(3-oxo-3-{[(trifluoromethyl)sulfonyl]amino}propyl)benzyl]pyrrolidin-2-yl}-N-octyl-1,3-oxazole-4-carboxamide], for which the Kb in assay [1] (setting [15]) was 270 nM; in assay [2] (EC50 (nM) on Prostanoid Receptor Functional Activity Measured by FLIPR, (FLIPR) Kb (nM): EP3, HEK-293 EBNA stable cells), 110 nM; in assay [3] (EC50 (nM) on Prostanoid Receptor Functional Activity Measured by FLIPR, (FLIPR) Kb (nM): EP4, HEK-293 EBNA stable cells) it was 19 nM; in assay [4] (setting [15]), 290 nM; in assay [5], greater than 1 nM; in assay [6], 18 nM. The Kb in assay [7] (EC50 (nM) on Prostanoid Receptor Functional Activity Measured by FLIPR, (FLIPR) Kb (nM): EP2, HEK-293 EBNA stable cells) was found to be 2500 nM; in assay [8] (EC50 (nM) on Prostanoid Receptor Functional Activity Measured by FLIPR, (FLIPR) Kb (nM): EP1, HEK-293 EBNA stable cells), 20 nM.
